Literature values in US10500196B2 (Aequus Pharmaceuticals Inc., priority 2015, dated 2019).

Details: oral DICLEGIS tablet

SMILES: Cc1ncc(CO)c(CO)c1O.Cl [Pyridoxine Hydrochloride, 3,4-pyridinedimethanol,5-hydroxy-6-methyl-,hydrochloride]
- absorption when administered with food: delayed
- bioavailability with food: reduces
